This is an account of results in ChEMBL document CHEMBL3421542, “Pure Diastereomers of a Tranylcypromine-Based LSD1 Inhibitor: Enzyme Selectivity and In-Cell Studies” (ACS Med Chem Lett, 2015).

Each structure is given as a SMILES string.

The target in series [1] is T1, MAO-B (amine oxidase [flavin-containing] B) (Homo sapiens, UniProt P27338).
T1 sequence (P27338 whole entry): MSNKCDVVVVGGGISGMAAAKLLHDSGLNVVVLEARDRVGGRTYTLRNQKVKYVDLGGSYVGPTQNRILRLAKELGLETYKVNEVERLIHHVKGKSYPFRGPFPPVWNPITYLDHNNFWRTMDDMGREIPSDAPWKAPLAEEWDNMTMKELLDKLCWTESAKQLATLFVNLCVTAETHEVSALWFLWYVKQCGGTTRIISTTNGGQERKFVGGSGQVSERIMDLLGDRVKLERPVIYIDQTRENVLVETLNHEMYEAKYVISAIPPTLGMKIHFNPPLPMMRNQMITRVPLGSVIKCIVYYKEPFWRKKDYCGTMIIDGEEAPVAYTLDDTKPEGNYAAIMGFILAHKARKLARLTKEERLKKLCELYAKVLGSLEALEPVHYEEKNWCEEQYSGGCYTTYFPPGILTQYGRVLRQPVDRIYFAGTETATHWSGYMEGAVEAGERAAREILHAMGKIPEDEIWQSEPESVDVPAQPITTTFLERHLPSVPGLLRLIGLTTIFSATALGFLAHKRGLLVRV
Briefly: Inhibition of human recombinant MAOB expressed in Pichia pastoris at 100 uM incubated for 15 mins prior to substrate addition measured after 30 mins by luminescence assay.

For series [2], the target named is T2, Amine oxidase [flavin-containing] B (Homo sapiens, UniProt P27338).
T2 sequence (P27338 whole entry): T1 sequence (P27338 whole entry)
Kind of series: Inhibition of human recombinant MAOB expressed in Pichia pastoris incubated for 15 mins prior to substrate addition measured after 30 mins by luminescence assay.

Series [3] can be described thus: Inhibition of colony formation in mouse acute promyelocytic leukemic cell at 0.25 uM after 7 days by colony forming unit assay. As to conditions: 168 h. The series is classed as functional.
A short description of series [4]: Induction of cell differentiation in human NB4 cells assessed as upregulation of CD11B expression. The series is classed as functional, cell-based. The conditions noted are these: NB-4.
Series [5] is described as follows: Induction of cell differentiation in mouse acute promyelocytic leukemic cells. The series is classed as functional.

Broadly, the inhibition is the drop in the measured response relative to a control, in per cent. With `N[C@H]1C[C@@H]1c1ccc(NC(=O)[C@@H](Cc2ccccc2)NC(=O)OCc2ccccc2)cc1`, the inhibition at 0.5 h, 100 µM in series [1] was found to be 14%.
What is called IC50 is the concentration needed to halve the response being measured. Turning to `N[C@@H]1C[C@H]1c1ccc(NC(=O)[C@H](Cc2ccccc2)NC(=O)OCc2ccccc2)cc1`, in series [2], the IC50 was determined as 32 µM. In series [3], this compound showed an inhibition at 0.25 µM of 59.2%.
As for `Cl.NC1CC1c1ccc(NC(=O)C(Cc2ccccc2)NC(=O)OCc2ccccc2)cc1` (mixture of isomers), the inhibition at 0.5 h, 100 µM in series [1] stood at 40%. The Activity in series [4] and in series [5] was 77.9% each time. In series [3], this compound returned an inhibition at 0.25 µM of 36.8%.
With `N[C@H]1C[C@@H]1c1ccc(NC(=O)[C@H](Cc2ccccc2)NC(=O)OCc2ccccc2)cc1`, the IC50 in series [2] was 42.6 µM.
Consider `N[C@@H]1C[C@H]1c1ccc(NC(=O)[C@@H](Cc2ccccc2)NC(=O)OCc2ccccc2)cc1`, for which, in series [1], the inhibition at 0.5 h, 100 µM turned out to be 33%. Further, the inhibition at 0.25 µM in series [3] stood at 59.6%.
